This assay deals with T1, human neutrophil elastase (HNE) (Homo sapiens, UniProt P08246).
T1 sequence (P08246 30-267): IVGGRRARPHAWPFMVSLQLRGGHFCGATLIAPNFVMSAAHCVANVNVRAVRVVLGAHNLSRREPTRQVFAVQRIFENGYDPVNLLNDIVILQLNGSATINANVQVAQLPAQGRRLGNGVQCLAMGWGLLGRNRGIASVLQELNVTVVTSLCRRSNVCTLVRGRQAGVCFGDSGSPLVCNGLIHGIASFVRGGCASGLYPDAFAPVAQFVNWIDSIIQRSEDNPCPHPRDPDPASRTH
Description: HNE Ki of CE compounds, tested as described in WO 96/16080. It is filed as biochemical. Conditions: read-out: HNE Ki.

The values that follow come from patent US6656911B2, “Serine protease inhibitors” (Cortech, Inc., priority 1994, dated 2003).

Take `CC(C)C(NC(=O)CN1C(=O)C(c2ccccc2)N(C)C1=O)C(=O)c1noc(Cc2cccc(C(F)(F)F)c2)n1` [CE2182, 5-(R,S)-Phenyl-1-methyl-2,4-imidazolidinedione-N-[1-(3-[5-(3-trifluoromethylbenzyl)-1,2,4-oxadiazolyl]carbonyl)-2-(S)-methylpropyl]acetamide]: the Ki (as a rule, the equilibrium dissociation constant of an inhibitor or competing ligand from its target) was 54 nM.

In the case of `Cc1cccc(Cc2nnc(C(=O)C(NC(=O)C3Cc4ccccc4CN3C(=O)C(NC(=O)OCc3ccccc3)C(C)C)C(C)C)o2)c1` [CE2183, Benzyloxycarbonyl-L-valyl-(1,2,3,4-tetrahydroisoquinoline)-3-N-[1-(2-[5-(3-methylbenzyl)-1,3,4-oxadiazolyl]carbonyl)-2-(R,S)-methylpropyl]amide], the Ki stood at 0.23 nM.

As for `CC(C)[C@H](NC(=O)[C@@H]1CCCN1C(=O)[C@@H](NC(=O)OCc1ccncc1)C(C)C)C(=O)c1noc(Cc2cccc(C(F)(F)F)c2)n1` [CE2185, 4-Pyridylmethyleneoxycarbonyl-L-valyl-N-[1-(3-[5-(3-trifluoromethylbenzyl)-1,2,4-oxadiazolyl]carbonyl)-2-(S)-methylpropyl]-L-prolinamide], the Ki is 0.27 nM.

As to `Cc1cccc(Cc2nnc(C(=O)[C@@H](NC(=O)[C@@H]3CCCN3C(=O)[C@@H](NC(=O)OCc3ccncc3)C(C)C)C(C)C)o2)c1` [CE2186, 4-Pyridylmethyleneoxycarbonyl -L-valyl-N-[1-(2-[5-(3-methylbenzyl)-1,3,4-oxadiazolyl]carbonyl)-2-(S)-methylpropyl]-L-prolinamide], the inhibition constant (Ki) amounted to 0.037 nM.

As for `CC(C)[C@H](NC(=O)CN1C(=O)CN(Cc2ccc3c(c2)OCCO3)C(=O)[C@@H]1Cc1ccccc1)C(=O)c1noc(Cc2cccc(C(F)(F)F)c2)n1` [CE2187], the Ki was determined as 42 nM.

Regarding `CC(C)[C@H](NC(=O)CN1C(=O)CN(Cc2ccccc2)C1=O)C(=O)c1noc(Cc2cccc(C(F)(F)F)c2)n1` [CE2189, 1-Benzyl-2,4-imidazolidinedione-N-[1-(3-[5-(3-trifluoromethylbenzyl)-1,2,4-oxadiazolyl]carbonyl)-2-(S)-methylpropyl]acetamide], the Ki turned out to be 99 nM.

Regarding `Cc1cccc(Cc2nnc(C(=O)[C@@H](NC(=O)CN3C(=O)CN(C(=O)OCc4ccccc4)C[C@H]3Cc3ccccc3)C(C)C)o2)c1` [CE2190, [1-Benzyloxycarbonyl-5-(R)-benzylpipeazin-3-one]-N-[1-(2-[5-(3-methylbenzyl)-1,3,4-oxadiazolyl]carbonyl)-2-(S)-methylpropyl]acetamide], the Ki was 29 nM.

Turning to `CC(C)C(NC(=O)CN1C(=O)C(c2ccccc2)N(CCN2CCOCC2)C1=O)C(=O)c1noc(Cc2cccc(C(F)(F)F)c2)n1` [CE2193, 1-(N-Morpholinoethyl)-5-(R,S)-phenyl-2,4-imidazolidindione-N-[1-(3-[5-(3-trifluoromethylbenzyl)-1,2,4-oxadiazolyl]carbonyl)-2-(R,S)-methylpropyl]acetamide], the Ki is 36 nM.

With `Cc1cccc(Cc2nnc(C(=O)[C@@H](NC(=O)CN(C(=O)c3ccc[nH]3)C3CCc4ccccc43)C(C)C)o2)c1` (stereo partly drawn) [CE2195, (Pyrrole-2-carbonyl)-N-[1-(R,S)-indanyl]glycyl-N-[1-(2-[5-(3-methylbenzyl)-1,3,4-oxadiazolyl]carbonyl)-2-(S)-methylpropyl]amide], the inhibition constant Ki amounted to 10.6 nM.

`Cc1cccc(Cc2nnc(C(=O)C(NC(=O)CN3C(=O)CNCC3Cc3ccccc3)C(C)C)o2)c1` [CE2196, (6-(R)-Benzylpiperazin-2-one)-N-[1-(2-[5-(3-methylbenzyl)-1,3,4-oxadiazolyl]carbonyl)-2-(R,S)-methylpropyl]acetamide]: the Ki turned out to be 96 nM.

Take `Cc1cccc(Cc2nnc(C(=O)[C@@H](NC(=O)CN3C(=O)CN(Cc4ccc5c(c4)OCCO5)C(=O)[C@H]3Cc3ccccc3)C(C)C)o2)c1` [CE2197, 4-[1-(3,4-Ethylenedioxybenzyl)-3-(R)-benzylpiperazine-2,5-dione]-N-[1-(2-[5-(3-methylbenzyl)-1,3,4-oxadiazolyl]carbonyl)-2-(S)-methylpropyl]acetamide]: the Ki worked out at 4.8 nM.
